Laboratory results as given in paper PMC8262591 (Brain research bulletin, 2020).
Several values for one entry are separate records, joined by “and”; a condition that tells them apart may be missing. Equal values may be shown once. Where a name gives a salt, the structure may show the parent alone.

Tests used:
brain CYP2D [1] = settings: seven-day subcutaneous nicotine; ref McMillan and Tyndale, 2015; cited from earlier work
brain CYP2D [2] = settings: seven-day subcutaneous nicotine; ref McMillan and Tyndale, 2015; cited from earlier work; remark: listed apart in the source
Adult male Wistar rats [3] = test: Tail-flick latency; type: in vivo, rat; settings: for decrease in potency when moving from i.p. to p.o. route of administration: analgesia, i.p. vs p.o.; for peak analgesia: tail-flick
Adult male Wistar rats [4] = settings: tramadol 40 mg/kg i.p.; ref Wang et al., 2015; cited from earlier work
[5] = oral tramadol; ref Nobilis et al., 2002, Ong et al., 2005; cited from earlier work
brain CYP2D [6] = settings: 24 hr i.c.v. propranolol pretreatment, pilot study
brain CYP2D [7] = settings: 24 hr i.c.v. propranolol pretreatment, pilot microdialysis study, tramadol p.o.

CN1CCC[C@H]1c1cccnc1 [nicotine]
increase in codeine-induced antinociception, tail-flick reflex AUC0–30 min (brain CYP2D [1]): 1.6 fold
increase in codeine-induced antinociception, hot-plate test AUC (brain CYP2D [2]): 2.5 fold

COc1cccc(C2(O)CCCCC2CN(C)C)c1 (stereo not drawn) [tramadol, Tramadol hydrochloride]
decrease in potency when moving from i.p. to p.o. route of administration (Adult male Wistar rats [3]): 2.5 – 10 fold and 2.5 fold
overall analgesic response, AUC 0–60 min (Adult male Wistar rats [3]; tramadol 40 mg/kg i.p.): 2840 %MPE*min
time to peak analgesia (Adult male Wistar rats [3]; tramadol 40 mg/kg i.p.): 50 min post-injection
peak analgesia (Adult male Wistar rats [3]; tramadol 40 mg/kg i.p.): 65 % MPE
peak analgesia (Adult male Wistar rats [3]; tramadol 100 mg/kg p.o.): 74 % MPE
overall analgesic response, AUC 0–60 min (published) (Adult male Wistar rats [4]): 1740 %MPE*min
peak analgesia (published) (Adult male Wistar rats [4]): approximately 52 % MPE
time to peak analgesia (published) (Adult male Wistar rats [4]): 45 min post-injection
fraction of a tramadol dose undergoing first-pass metabolism [5]: 30%

CN1CC[C@]23c4c5ccc(O)c4O[C@H]2[C@@H](O)C=C[C@H]3[C@H]1C5 [morphine]
decrease in potency when moving from i.p. to p.o. route of administration (Adult male Wistar rats [3]): 2.5 – 10 fold

COc1ccc2c3c1O[C@H]1[C@@H](O)C=C[C@H]4[C@@H](C2)N(C)CC[C@@]341 [codeine]
decrease in potency when moving from i.p. to p.o. route of administration (Adult male Wistar rats [3]): 2.5 – 10 fold

CC(C)NCC(O)COc1cccc2ccccc12 (stereo not drawn) [propranolol, Propranolol hydrochloride]
effect on analgesia after tramadol p.o. (brain CYP2D [6]): increase in analgesia
effect on brain levels of tramadol, ODSMT and NDSMT (brain CYP2D [7]): increased
